Molecular target: T1, IGF-1R (Homo sapiens, UniProt P08069)
T1 construct: expressed in transfected cells; host or cells: Hek293 (Hek293-IGF1R)
Experiment: Cellular IGF-1R assay: capture ELISA (MSD) of receptor phosphorylation in Hek293 cells
Type: cell-based
Conditions: Hek293-IGF1R cells, 1 h pre-incubation, 10 min IGF stimulation, pIGF1R capture ELISA
Method in brief: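 IC50 from 4-parameter fit of IGF1R phosphorylation, normalised to IGF-stimulated and unstimulated controls, measured by MSD capture ELISA on lysates. Hek293-IGF1R cells in starvation medium got compound 1 h (top 10 μM, 3-fold steps, 0.1% DMSO) before a 10 min pulse of 1.0 ng/μL IGF.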

T1 sequence (P08069 31-1367): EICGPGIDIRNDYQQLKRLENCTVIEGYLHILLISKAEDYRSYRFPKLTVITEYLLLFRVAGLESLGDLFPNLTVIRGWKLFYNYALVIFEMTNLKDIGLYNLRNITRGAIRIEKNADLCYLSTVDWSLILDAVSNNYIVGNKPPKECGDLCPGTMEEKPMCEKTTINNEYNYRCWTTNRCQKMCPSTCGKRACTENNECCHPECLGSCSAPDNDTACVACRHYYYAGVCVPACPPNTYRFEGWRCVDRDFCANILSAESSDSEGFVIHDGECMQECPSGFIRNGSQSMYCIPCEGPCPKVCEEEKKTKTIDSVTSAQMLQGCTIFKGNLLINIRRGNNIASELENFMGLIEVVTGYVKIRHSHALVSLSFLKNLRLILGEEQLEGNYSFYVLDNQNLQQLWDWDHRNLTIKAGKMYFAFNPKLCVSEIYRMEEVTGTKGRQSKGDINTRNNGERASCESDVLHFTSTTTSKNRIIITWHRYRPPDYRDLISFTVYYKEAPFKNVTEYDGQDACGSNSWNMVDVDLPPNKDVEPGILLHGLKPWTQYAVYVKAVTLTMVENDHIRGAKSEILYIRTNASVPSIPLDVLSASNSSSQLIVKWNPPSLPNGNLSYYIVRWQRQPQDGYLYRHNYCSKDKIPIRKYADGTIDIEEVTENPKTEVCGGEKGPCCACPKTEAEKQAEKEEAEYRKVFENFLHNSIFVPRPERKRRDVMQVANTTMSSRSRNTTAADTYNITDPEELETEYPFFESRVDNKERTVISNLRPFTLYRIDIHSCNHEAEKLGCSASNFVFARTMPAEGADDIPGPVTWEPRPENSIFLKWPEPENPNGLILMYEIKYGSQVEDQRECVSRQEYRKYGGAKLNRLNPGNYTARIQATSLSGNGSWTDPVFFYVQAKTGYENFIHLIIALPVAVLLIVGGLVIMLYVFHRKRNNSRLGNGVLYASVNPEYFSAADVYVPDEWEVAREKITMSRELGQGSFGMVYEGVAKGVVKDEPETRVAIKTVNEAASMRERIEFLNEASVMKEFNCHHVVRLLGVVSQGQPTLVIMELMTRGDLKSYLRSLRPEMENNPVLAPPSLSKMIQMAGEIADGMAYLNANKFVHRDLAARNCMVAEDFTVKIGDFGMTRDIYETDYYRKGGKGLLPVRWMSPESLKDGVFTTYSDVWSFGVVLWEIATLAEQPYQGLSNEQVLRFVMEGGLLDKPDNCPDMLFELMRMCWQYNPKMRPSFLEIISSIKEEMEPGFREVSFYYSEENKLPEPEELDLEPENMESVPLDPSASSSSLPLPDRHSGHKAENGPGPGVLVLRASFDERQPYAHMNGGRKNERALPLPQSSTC

| Compound | IC50 |
| --- | --- |
| Nc1ncnc2c1c(-c1cccc(OCC34CCC(CC3)O4)c1)cn2C1CC(CN2CC3CC2C[S+]3[O-])C1 (single isomer, unassigned) [Example 228] | 10 to 15 nM |
| Nc1ncnc2c1c(-c1cccc(OCC34CCC(CC3)O4)c1)cn2C1CC(CN2CC3CC2C[S+]3[O-])C1 (single isomer, unassigned) [Example 229] | 633 nM |
| Nc1ncnc2c1c(-c1cccc(OC[C@@H]3CCCO3)c1)cn2[C@H]1C[C@@H](CN2CCS(=O)(=O)CC2)C1 [Example 4, cis-7-(3-[(1,1-dioxidothiomorpholin-4-yl)methyl]cyclobutyl}-5-{3-[(2S)-tetrahydrofuran-2-ylmethoxy]phenyl}-7H-pyrrolo[2,3-d]pyrimidin-4-amine] | 36 nM |
| CC1CCC(COc2cccc(-c3cn([C@H]4C[C@@H](CN5CCC5)C4)c4ncnc(N)c34)c2)O1 (stereo partly drawn) [Example 5, cis-7-(3-azetidin-1-ylmethyl-cyclobutyl)-5-[3-(5-methyl-tetrahydro-furan-2-ylmethoxy)-phenyl]-7H-pyrrolo[2,3-d]pyrimidin-4-ylamine] | 51 to 58 nM |
| CC1(C)CCC(COc2cccc(-c3cn(C4CC(CN5CCS(=O)(=O)CC5)C4)c4ncnc(N)c34)c2)O1 (stereo not drawn) [Example 14, 5-[3-(5,5-dimethyl-tetrahydro-furan-2-ylmethoxy)phenyl]-7-[3-(1,1-dioxothiomorpholin-4-ylmethyl)-cyclobutyl]-7H-pyrrolo[2,3-d]pyrimidin-4-ylamine] | 17 nM |
| Nc1ncnc2c1c(-c1cccc(OC[C@@H]3CCCO3)c1)cn2[C@H]1C[C@@H](CN2CCC(F)(F)CC2)C1 [Example 16, cis-7-[3-(4,4-Difluoro-piperidin-1-ylmethyl)-cyclobutyl]-5-{3-[(S)-1-(tetrahydrofuran-2-yl)methoxy]-phenyl}-7H-pyrrolo[2,3-d]pyrimidin-4-ylamine] | 90 to 219 nM |
| Nc1ncnc2c1c(-c1cccc(OCC34CCC(CC3)O4)c1)cn2C1CC(CN2CCC2)C1 (stereo not drawn) [Example 23, 7-(3-azetidin-1-ylmethyl-cyclobutyl)-5-[3-(7-oxa-bicyclo[2.2.1]hept-1-ylmethoxy)-phenyl]-7H-pyrrolo[2,3-d]pyrimidin-4-ylamine] | 45 to 60 nM |
| Nc1ncnc2c1c(-c1cccc(OCC34CCC(CC3)O4)c1)cn2C1CC(CN2CCS(=O)(=O)CC2)C1 (stereo not drawn) [Example 24, 7-[3-(1,1-dioxo-1-thiomorpholin-4-ylmethyl)-cyclobutyl]-5-[3-(7-oxa-bicyclo[2.2.1]hept-1-ylmethoxy)-phenyl]-7H-pyrrolo[2,3-d]pyrimidin-4-ylamine] | 3.9 to 4 nM |
| Nc1ncnc2c1c(-c1cccc(OCC34CCC(CC3)O4)c1)cn2C1CC(CN2CCC[C@H]2CO)C1 (stereo partly drawn) [Example 25, [(S)-1-(3-{4-amino-5-[3-(7-oxa-bicyclo[2.2.1]hept-1-ylmethoxy)-phenyl]-pyrrolo[2,3-d]pyrimidin-7-yl}-cyclobutylmethyl)-pyrrolidin-2-yl]-methanol] | 4 to 14 nM |
| Nc1ncnc2c1c(-c1cccc(OCC34CCC(CC3)O4)c1)cn2C1CC(CN2CC(O)C2)C1 (stereo not drawn) [Example 26, 1-(3-{4-amino-5-[3-(7-oxa-bicyclo[2.2.1]hept-1-ylmethoxy)-phenyl]-pyrrolo[2,3-d]pyrimidin-7-yl}-cyclobutylmethyl)azetidin-3-ol] | 38 nM |
| Nc1ncnc2c1c(-c1cccc(OCC3CCCCO3)c1)cn2C1CC(CN2CC[C@@H](F)C2)C1 (stereo partly drawn) [Example 27, 7-[3-((R)-3-fluoro-pyrrolidin-1-ylmethyl)-cyclobutyl]-5-[3-(tetrahydro-pyran-2-ylmethoxy)-phenyl]-7H-pyrrolo[2,3-d]pyrimidin-4-ylamine] | 345 nM |
| NC(=O)[C@H]1CCCN1C[C@H]1C[C@@H](n2cc(-c3cccc(OCC4CCCCO4)c3)c3c(N)ncnc32)C1 (stereo partly drawn) [Example 29, (R)-1-(cis-3-{4-amino-5-[3-(tetrahydro-pyran-2-ylmethoxy)-phenyl]-pyrrolo[2,3-d]pyrimidin-7-yl}-cyclobutylmethyl)-pyrrolidine-2-carboxylic acid amide] | 149 to 152 nM |
| Nc1nccn2c1c(-c1cccc(OCC3CCCCO3)c1)nc2[C@H]1C[C@@H](CN2CCS(=O)(=O)CC2)C1 (stereo partly drawn) [Example 30, 3-[cis-3-(1,1-Dioxothiomorpholin-4-ylmethyl)-cyclobutyl]-1-[3-(tetrahydro-pyran-2-ylmethoxy)-phenyl]-imidazo[1,5-a]pyrazin-8-ylamine] | 254 nM |
| Nc1ncnc2c1c(-c1cccc(OCC3CCCCO3)c1)cn2[C@H]1C[C@@H](CN2CC[C@@H](O)C2)C1 (stereo partly drawn) [Example 33, (R)-1-(cis-3-{4-amino-5-[3-(tetrahydro-pyran-2-ylmethoxy)-phenyl]-pyrrolo[2,3-d]pyrimidin-7-yl}-cyclobutylmethyl)-pyrrolidin-3-ol] | 235 nM |
| Nc1ncnc2c1c(-c1cccc(OCC3CCCCO3)c1)cn2[C@H]1C[C@@H](CN2CC[C@H](O)C2)C1 (stereo partly drawn) [Example 34, (S)-1-(cis-3-{4-amino-5-[3-(tetrahydro-pyran-2-ylmethoxy)-phenyl]-pyrrolo[2,3-d]pyrimidin-7-yl}-cyclobutylmethyl)-pyrrolidin-3-ol] | 333 nM |
| NC(=O)[C@@H]1[C@@H](O)CCN1C[C@H]1C[C@@H](n2cc(-c3cccc(OCC4CCCCO4)c3)c3c(N)ncnc32)C1 (stereo partly drawn) [Example 35, (2S,3S)-1-(cis-3-{4-amino-5-[3-(tetrahydro-pyran-2-ylmethoxy)-phenyl]-pyrrolo[2,3-d]pyrimidin-7-yl}-cyclobutylmethyl)-3-hydroxy-pyrrolidine-2-carboxylic acid amide] | 41 to 103 nM |
| NC(=O)[C@@H]1CCCN1C[C@H]1C[C@H](n2cc(-c3cccc(OCC4CCCCO4)c3)c3c(N)ncnc32)C1 (stereo partly drawn) [Example 38, (S)-1-(trans-3-{4-amino-5-[3-(tetrahydro-pyran-2-ylmethoxy)-phenyl]-pyrrolo[2,3-d]pyrimidin-7-yl}-cyclobutylmethyl)-pyrrolidine-2-carboxylic acid amide] | 276 nM |
| CC1(C)CCC(COc2cccc(-c3cn(C4CC(CN5CC(F)C5)C4)c4ncnc(N)c34)c2)O1 (stereo not drawn) [Example 40, 5-(cis-3-((5,5-dimethyltetrahydrofuran-2-yl)methoxy)phenyl)-7-(3-((3-fluoroazetidin-1-yl)methyl)cyclobutyl)-7H-pyrrolo[2,3-d]pyrimidin-4-amine] | 39 to 52 nM |
| NC(=O)[C@@H]1CCCN1C[C@H]1C[C@@H](n2cc(-c3cccc(OCC4CCCCO4)c3)c3c(N)ncnc32)C1 (stereo partly drawn) [Example 42, (S)-1-(cis-3-{4-amino-5-[3-(tetrahydro-pyran-2-ylmethoxy)-phenyl]-pyrrolo[2,3-d]pyrimidin-7-yl}-cyclobutylmethyl)-pyrrolidine-2-carboxylic acid amide] | 26 to 39 nM |
| NC(=O)[C@@H]1CCCN1C[C@H]1C[C@@H](n2cc(-c3cccc(OC[C@H]4CCCCO4)c3)c3c(N)ncnc32)C1 [Example 43, (S)-1-[3-(4-amino-5-{3-[(R)-1-(tetrahydro-pyran-2-yl)methoxy]-phenyl}-pyrrolo[2,3-d]pyrimidin-7-yl)-cyclobutylmethyl]-pyrrolidine-2-carboxylic acid amide] | 4 to 22 nM |
| NC(=O)[C@@H]1CCCN1C[C@H]1C[C@@H](n2cc(-c3cccc(OC[C@@H]4CCCCO4)c3)c3c(N)ncnc32)C1 [Example 44, (S)-1-[3-(4-amino-5-{3-[(S)-1-(tetrahydro-pyran-2-yl)methoxy]-phenyl}-pyrrolo[2,3-d]pyrimidin-7-yl)-cyclobutylmethyl]-pyrrolidine-2-carboxylic acid amide] | 7 to 15 nM |
